Values quoted from earlier work, collected in US20240139257A1, “METHODS AND COMPOSITIONS FOR ALOPECIA TREATMENT USING FIBROBLASTS AND FIBROBLAST-DERIVED PRODUCTS” (FIGENE, LLC, priority 2021, published 2024).

Tests used:
IL-2 mRNA = details: scalp biopsies, AA patients, after successful DCP treatment
IL-10 mRNA = details: scalp biopsies, AA patients, after successful DCP treatment
[1] = test system: interferon (IFN)-gamma mRNA; details: scalp biopsies, AA patients, after successful DCP treatment; still above the constitutive level found in controls
IL-8 mRNA = details: scalp biopsies, AA patients, after successful DCP treatment
[2] = test system: tumor necrosis factor-alpha mRNA; details: scalp biopsies, AA patients, after successful DCP treatment

Structure (SMILES): O=c1c(-c2ccccc2)c1-c1ccccc1 [DCP, diphenylcyclopropenone]
- mRNA expression of IL-2 after DCP treatment (IL-2 mRNA): increased
- mRNA expression of IL-10 after DCP treatment (IL-10 mRNA): increased
- IFN-gamma expression after DCP treatment [1]: reduced
- Therapeutic benefit of topical immunotherapy in AA patients (alopecia areata (AA)): some therapeutic benefits
- mRNA expression of IL-8 after DCP treatment (IL-8 mRNA): increased
- mRNA expression of tumor necrosis factor-alpha after DCP treatment [2]: increased
